# Assay results: PubChem BioAssay (NCI)
#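 Tested at 5 concentrations; 48 h exposure; 96-well plates; endpoints linearly interpolated, else capped at highest concentration. TGI marks complete inhibition of growth.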
# Tests used:
# Experiment in all cases: NCI tumour cell line growth inhibition, 48 h
# MDA-N = tested on: MDA-N
# HCT-116 colon = tested on: HCT-116 colon
# UACC-62 melanoma = tested on: UACC-62 melanoma
# SK-MEL-28 melanoma = tested on: SK-MEL-28 melanoma
# OVCAR-4 ovarian = tested on: OVCAR-4 ovarian
# RPMI-8226 leukemia = tested on: RPMI-8226 leukemia
# BT-549 breast = tested on: BT-549 breast
# IGROV1 ovarian = tested on: IGROV1 ovarian
# DU-145 prostate = tested on: DU-145 prostate
# M14 melanoma = tested on: M14 melanoma
# SF-268 CNS = tested on: SF-268 CNS
# SF-295 CNS = tested on: SF-295 CNS
# MDA-MB-231 breast = tested on: MDA-MB-231 breast
# ACHN renal = tested on: ACHN renal
# OVCAR-5 ovarian = tested on: OVCAR-5 ovarian
# COLO 205 colon = tested on: COLO 205 colon
# SW-620 colon = tested on: SW-620 colon
# RXF 393 renal = tested on: RXF 393 renal
# HS 578T breast = tested on: HS 578T breast
# SK-OV-3 ovarian = tested on: SK-OV-3 ovarian
# SF-539 CNS = tested on: SF-539 CNS
# NCI-H226 lung = tested on: NCI-H226 lung
# KM12 colon = tested on: KM12 colon
# SNB-19 CNS = tested on: SNB-19 CNS
# NCI-H23 lung = tested on: NCI-H23 lung
# NCI-H460 lung = tested on: NCI-H460 lung
# SR leukemia = tested on: SR leukemia
# SNB-75 CNS = tested on: SNB-75 CNS
# MALME-3M melanoma = tested on: MALME-3M melanoma
# CAKI-1 renal = tested on: CAKI-1 renal
# NCI/ADR-RES ovarian = tested on: NCI/ADR-RES ovarian
# UACC-257 melanoma = tested on: UACC-257 melanoma
# PC-3 prostate = tested on: PC-3 prostate
# HL-60(TB) leukemia = tested on: HL-60(TB) leukemia
# 786-0 renal = tested on: 786-0 renal
# MOLT-4 leukemia = tested on: MOLT-4 leukemia
# TK-10 renal = tested on: TK-10 renal
# HCT-15 colon = tested on: HCT-15 colon
# EKVX NSCLC = tested on: EKVX NSCLC
# SK-MEL-2 melanoma = tested on: SK-MEL-2 melanoma
# U251 CNS = tested on: U251 CNS
# A549 NSCLC = tested on: A549 NSCLC
# SN12C renal = tested on: SN12C renal
# HOP-62 NSCLC = tested on: HOP-62 NSCLC
# HT29 colon = tested on: HT29 colon
# SK-MEL-5 melanoma = tested on: SK-MEL-5 melanoma
# T-47D breast = tested on: T-47D breast
# MDA-MB-435 = tested on: MDA-MB-435
# MCF7 breast = tested on: MCF7 breast
# OVCAR-3 ovarian = tested on: OVCAR-3 ovarian
# K-562 leukemia = tested on: K-562 leukemia
# HCC-2998 colon = tested on: HCC-2998 colon
# CCRF-CEM leukemia = tested on: CCRF-CEM leukemia
# NCI-H522 lung = tested on: NCI-H522 lung
# OVCAR-8 ovarian = tested on: OVCAR-8 ovarian
# A498 renal = tested on: A498 renal
# LOX IMVI melanoma = tested on: LOX IMVI melanoma
# UO-31 renal = tested on: UO-31 renal
# HOP-92 NSCLC = tested on: HOP-92 NSCLC
structure (smiles),measurement,setting,value
O=C1CC(NCCCNC2CC(=O)c3c(Br)sc(Br)c32)c2c(Br)sc(Br)c21 (stereo unspecified),TGI,MDA-N,5.54 µM
same,TGI,HCT-116 colon,2.41 µM
same,TGI,UACC-62 melanoma,3.86 µM
same,TGI,SK-MEL-28 melanoma,> 24.3 µM
same,TGI,OVCAR-4 ovarian,12.7 µM
same,TGI,RPMI-8226 leukemia,> 100 µM
same,TGI,BT-549 breast,4.23 µM
same,TGI,IGROV1 ovarian,3.7 µM
same,TGI,DU-145 prostate,3.64 µM
same,TGI,M14 melanoma,4.39 µM
same,TGI,SF-268 CNS,11.7 µM
same,TGI,SF-295 CNS,14.3 µM
same,TGI,MDA-MB-231 breast,4.3 µM
same,TGI,ACHN renal,3.55 µM
same,TGI,OVCAR-5 ovarian,4.85 µM
same,TGI,COLO 205 colon,5.89 µM
same,TGI,SW-620 colon,> 100 µM
same,TGI,RXF 393 renal,3.62 µM
same,TGI,HS 578T breast,> 44.6 µM
same,TGI,SK-OV-3 ovarian,14.9 µM
same,TGI,SF-539 CNS,8.56 µM
same,TGI,NCI-H226 lung,12.6 µM
same,TGI,KM12 colon,3.5 µM
same,TGI,SNB-19 CNS,6.75 µM
same,TGI,NCI-H23 lung,4.36 µM
same,TGI,NCI-H460 lung,> 100 µM
same,TGI,SR leukemia,> 100 µM
same,TGI,SNB-75 CNS,7.68 µM
same,TGI,MALME-3M melanoma,4.21 µM
same,TGI,CAKI-1 renal,3.77 µM
same,TGI,NCI/ADR-RES ovarian,5.64 µM
same,TGI,UACC-257 melanoma,> 35.8 µM
same,TGI,PC-3 prostate,3.9 µM
same,TGI,HL-60(TB) leukemia,> 100 µM
same,TGI,786-0 renal,2.63 µM
same,TGI,MOLT-4 leukemia,1.21 µM
same,TGI,TK-10 renal,4.61 µM
same,TGI,HCT-15 colon,3.56 µM
same,TGI,EKVX NSCLC,4.8 µM
same,TGI,SK-MEL-2 melanoma,5.01 µM
same,TGI,U251 CNS,2.82 µM
same,TGI,A549 NSCLC,> 100 µM
same,TGI,SN12C renal,4.77 µM
same,TGI,HOP-62 NSCLC,14 µM
same,TGI,HT29 colon,4.96 µM
same,TGI,SK-MEL-5 melanoma,6.04 µM
same,TGI,T-47D breast,5.28 µM
same,TGI,MDA-MB-435,4.28 µM
Cc1cc2oc(=O)c(Cl)c(Cl)c2c(C)c1Cl,TGI,MDA-N,10.8 µM
same,TGI,HCT-116 colon,14 µM
same,TGI,UACC-62 melanoma,20.2 µM
same,TGI,SK-MEL-28 melanoma,28.9 µM
same,TGI,OVCAR-4 ovarian,15.6 µM
same,TGI,RPMI-8226 leukemia,6 µM
same,TGI,BT-549 breast,39 µM
same,TGI,IGROV1 ovarian,15.8 µM
same,TGI,DU-145 prostate,27.8 µM
same,TGI,M14 melanoma,22.4 µM
same,TGI,SF-268 CNS,11.5 µM
same,TGI,MCF7 breast,23.5 µM
same,TGI,SF-295 CNS,31.9 µM
same,TGI,MDA-MB-231 breast,28.7 µM
same,TGI,ACHN renal,23.3 µM
same,TGI,OVCAR-5 ovarian,27.8 µM
same,TGI,COLO 205 colon,8.09 µM
same,TGI,OVCAR-3 ovarian,7.1 µM
same,TGI,SW-620 colon,2.94 µM
same,TGI,RXF 393 renal,6.03 µM
same,TGI,HS 578T breast,9.64 µM
same,TGI,SK-OV-3 ovarian,27.6 µM
same,TGI,SF-539 CNS,21.4 µM
same,TGI,NCI-H226 lung,33.2 µM
same,TGI,KM12 colon,29.4 µM
same,TGI,SNB-19 CNS,24.6 µM
same,TGI,NCI-H23 lung,39.7 µM
same,TGI,NCI-H460 lung,59.9 µM
same,TGI,SNB-75 CNS,25.2 µM
same,TGI,K-562 leukemia,4.39 µM
same,TGI,HCC-2998 colon,14.1 µM
same,TGI,CCRF-CEM leukemia,7.04 µM
same,TGI,MALME-3M melanoma,23.7 µM
same,TGI,NCI-H522 lung,28.3 µM
same,TGI,CAKI-1 renal,15.7 µM
same,TGI,NCI/ADR-RES ovarian,38.4 µM
same,TGI,UACC-257 melanoma,30 µM
same,TGI,PC-3 prostate,23.6 µM
same,TGI,HL-60(TB) leukemia,4.93 µM
same,TGI,786-0 renal,10.2 µM
same,TGI,MOLT-4 leukemia,5.21 µM
same,TGI,OVCAR-8 ovarian,10.4 µM
same,TGI,TK-10 renal,28.3 µM
same,TGI,A498 renal,34 µM
same,TGI,HCT-15 colon,14.3 µM
same,TGI,EKVX NSCLC,34.5 µM
same,TGI,SK-MEL-2 melanoma,26 µM
same,TGI,U251 CNS,8.45 µM
same,TGI,A549 NSCLC,37.3 µM
same,TGI,SN12C renal,24.5 µM
same,TGI,HOP-62 NSCLC,66 µM
same,TGI,LOX IMVI melanoma,8.84 µM
same,TGI,HT29 colon,22.8 µM
same,TGI,UO-31 renal,25.3 µM
same,TGI,SK-MEL-5 melanoma,19.2 µM
same,TGI,T-47D breast,40.2 µM
same,TGI,MDA-MB-435,15.3 µM
same,TGI,HOP-92 NSCLC,7.45 µM
